Values joined by “and” are separate entries in the source; they are usually repeats but may differ in a detail not shown here. Identical values can stand only once. Like-named read-outs stand apart in the source and are kept apart here.
Assays:
U87MG tumor fragments = assay: animal or person; details: for Regression CR (complete regression) / Regression PR (partial regression): number of animals
Procedure: HRLN female nu/nu mice were seeded with 1 mm^3 U87MG tumor fragments subcutaneously in the flank. Final caliper and body weight measurements were taken on the last day of the study.
All animals were assessed periodically for body weight, as well as tumor burden, using standard protocols with mechanical calipers. […] Dosing was stopped for any group with two measurements of mean body weight loss of greater than 20%. The group was not euthanized, and recovery was allowed. Within a group with greater than 20% weight loss, individuals reaching the individual body weight loss endpoint were euthanized. If the group body weight loss was recovered, dosing may resume. […] Dosing was then resumed with the candidate agent at half the original dose. Animals were monitored as a group. The endpoint of the experiment was a mean tumor weight in control group (or group 1) of 2000 mm^3 or 60 days, whichever comes first. When the endpoint was reached, all the animals were euthanized.

[1] = test system: U87MG human glioblastomas; assay: U87MG human glioblastoma xenograft in nude mice, tumor growth inhibition Day 22 (Example 1)
Procedure: Each test mouse received a U87MG tumor fragment of the size 1 mm^3. […] Body weight and tumor size were monitored.
It was administered at either 5 mg/kg orally (p.o.) per day or 100 mg/kg (p.o.) per day, once daily from day 1 to day 5 of the treatment (qd×5). Candesartan in 0.5% carboxymethyl cellulose was dissolved in deionized water and administered intraperitoneally (i.p.) at the dose of 10 mg/kg once daily from day 1 to day 21 (qd×21).

[2] = test system: U87MG human glioblastoma xenografts; assay: U87MG human glioblastoma xenograft, tumor growth delay, 49-day study (Example 2);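 further: female athymic nude mice with subcutaneous tumors, groups of ten, tumors measured twice weekly, endpoint at 2000 mm^3 tumor volume or Day 49, treated compared with control mice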
Procedure: The experiment consisted of groups (n=10) of female athymic nude mice bearing subcutaneous U87MG xenografts (75-144 mm^3) on Day 1. Candesartan was evaluated as monotherapies at dosages of 1, 5, 10 and 50 mg/kg administered intraperitoneally (i.p.) on a once daily for twenty-one days (qd×21) schedule. […] Dosing was initiated on Day 1, and tumors were measured twice each week until the study was ended on Day 49. Animals were monitored individually and each mouse was euthanized for endpoint when its tumor attained a volume of 2000 mm^3 (about 2 grams) or on the final day (Day 49), whichever came first. Tumor samples were collected at endpoint, and histopathology analyses were performed.
The time to endpoint (TTE) was calculated for each mouse. Treatment outcome was determined from percent tumor growth delay (% TGD), defined as the percent increase in median TTE of treated versus control mice, with differences in the TTE values between groups deemed statistically significant at P 0.05 using logrank survival analysis. Animals were also monitored for partial regression (PR) and complete regression (CR) responses. Treatment tolerability was assessed by body weight measurements and frequent observation for signs of treatment-related (TR) toxicity.
Treatment response was determined from an analysis of percent tumor growth delay (% TGD), defined as the percent increase in the median time to endpoint (TTE) in treated versus control mice; by logrank significance of differences in survival among treatment groups; and by regression responses. Plots of group mean tumor growth were also considered. Treatment tolerability was assessed by body weight measurements and frequent observation for clinical symptoms of treatment-related (TR) side effects.
Xenografts were initiated with U87MG human glioblastomas (Piedmont Research Center, Morrisville, N.C.) by serial subcutaneous transplantation in athymic nude mice. Each test mouse received a U87MG tumor fragment (1 mm^3) implanted subcutaneously in the right flank, and the growth of tumors was monitored as the average size approached the target range of 80 to 120 mm^3. […] Tumor volume was calculated using the formula: Tumor Volume (mm^3)=w^2×l/2 where w=width and l=length in mm of a U87MG tumor. Tumor weight may be estimated with the assumption that 1 mg is equivalent to 1 mm^3 of tumor volume. Therapeutic Agents
Doses of valsartan and candesartan were each formulated weekly, and were stored at 4° C. Valsartan dosing solutions were formulated at concentrations of 15 and 3 mg/mL to yield the desired 150 and 30 mg/kg dosages, respectively, in a dosing volume of 0.2 mL per 20 grams body weight (10 mL/kg). The required amount of valsartan powder for the 15 mg/mL solution was suspended in sterile saline, then dissolved with 0.1 N NaOH and pH adjusted to 7.4 with 0.1 N HCl. The 3 mg/mL valsartan dosing solution was prepared by diluting an aliquot of the 15 mg/mL valsartan solution with sterile saline. Candesartan doses were formulated in 0.5% carboxymethyl cellulose (CMC) in deionized water at concentrations of 5, 1, 0.5 and 0.1 mg/mL to yield the desired 50, 10, 5 and 1 mg/kg dosages, respectively, in a dosing volume of 10 mL/kg.
Each test agent was administered intraperitoneally (i.p.) once daily for twenty-one days (qd×21), unless otherwise indicated.
Group 1 was not treated and served as the control group for calculation of % TGD. […] Groups 4-7 received candesartan at 50, 10, 5 or 1 mg/kg, respectively. […] All doses were scaled to the body weights of the individual animals.
Tumors were measured twice each week using calipers.

[3] = test system: U87MG glioma human tumor cell line
Procedure: Compounds are assessed for combination efficacy in a tumor fragment xenograft model generated by serial passage of a commonly available U87MG glioma human tumor cell line. Experimental cohorts are derived by seeding 8-12 week old, female HRLN nu/nu mice with 1 mm^3 sub-fragments of tumors maintained through serial passage in living xenografts. […] Experimental compounds are dosed once daily, in a dose volume less than or equal to 10 mL/kg, in varying vehicle resuspensions and varied routes (see table 7 below). All animals are assessed periodically for body weight, as well as tumor burden using standard protocols with mechanical calipers.
Experimental compounds are scored for efficacy using various data analyses, including manual growth curve inspection, comparison of mean time-to-tumor burden (analogous to C/T analysis), and time-to-event survival analysis by tumor burden.

[4] = test system: U87MG human glioblastoma xenografts
Procedure: An untreated group served as the control group for efficacy analysis. Dosing was initiated on Day 1, except where indicated otherwise, and tumors were measured twice each week until the study was ended on Day 46. Animals were monitored individually and each mouse was euthanized for endpoint when its tumor attained a volume of 2000 mm^3 (about 2 grams) or on the final day (Day 46), whichever came first.
Treatment response was determined from an analysis of percent tumor growth delay (% TGD), defined as the percent increase in the median time to endpoint (TTE) in treated versus control mice; by logrank significance of differences in survival among treatment groups; and by regression responses. Plots of group mean tumor growth were also considered. Treatment tolerability was assessed by body weight measurements and frequent observation for clinical symptoms of treatment-related side effects.
Xenografts were initiated with U87MG human glioblastomas maintained at Piedmont by serial subcutaneous transplantation in athymic nude mice. Each test mouse received a U87MG tumor fragment (1 mm^3) implanted subcutaneously in the right flank, and the growth of tumors was monitored as the average size approached the target range of 80 to 120 mm^3. […] Tumor volume was calculated using the formula: Tumor Volume (mm^3)=w^2×l where w=width and l=length in mm of a U87MG tumor. Tumor weight may be estimated with the assumption that 1 mg is equivalent to 1 mm^3 of tumor volume.
On Day 1 of the study, mice were sorted into six groups each consisting of ten mice, and dosing was initiated according to the treatment plan summarized in Table 1. Group 1 mice were not treated and served as controls for calculation of % TGD. […] All doses were scaled to the body weights of the individual animals.
Tumors were measured twice each week using calipers. Animals were monitored individually, and each mouse was euthanized when its tumor reached the endpoint size of 2000 mm^3 or at the conclusion of the study (Day 46), whichever came first.
Animals were monitored for regression responses. Treatment may cause partial regression (PR) or complete regression (CR) of the tumor in an animal. In a PR response, the tumor volume is 50% or less of its Day 1 volume for three consecutive measurements during the course of the study, and equal to or greater than 13.5 mm^3 for one or more of these three measurements. In a CR response, the tumor volume is less than 13.5 mm^3 for three consecutive measurements during the course of the study. An animal with a CR response at the termination of a study is additionally classified as a tumor-free survivor (TFS).
Animals were weighed daily on Days 1-5, and then twice weekly until the study was completed. […] Acceptable toxicity was defined as a group mean body-weight loss of less than 20% during the study and not more than one treatment-related (TR) death among ten treated animals. Any dosing regimen that results in greater toxicity is considered above the maximum tolerated dose (MTD). […] A death is classified as NTR if there is no evidence that death was related to treatment side effects. NTR deaths may be further characterized based on cause of death. A death may be classified as NTRa if it resulted from an accident or human error. […] A death may be classified as NTRu if the cause of death is unknown and there is no available evidence of death related to treatment side effects, metastasis, accident or human error, although death due to treatment side effects cannot be excluded.

[5] = Group 1: temozolomide 5 po qd x 5 alone
[6] = Group 1: temozolomide 5 po qd x 5 alone, n=10
[7] = Group 19: temozolomide 100 po qd x 5 alone
[8] = Group 19: temozolomide 100 po qd x 5 alone, n=8
[9] = temozolomide 100 mg/kg p.o. qdx5
[10] = Group 2: temozolomide 100 mg/kg po qd x 5
[11] = Group 3: temozolomide 5 mg/kg po qd x 5
[12] = Day 1, temozolomide 100 mg/kg p.o. qdx5
[13] = Day 4, temozolomide 100 mg/kg p.o. qdx5
[14] = Day 7, temozolomide 100 mg/kg p.o. qdx5
[15] = Day 11, temozolomide 100 mg/kg p.o. qdx5
[16] = Day 14, temozolomide 100 mg/kg p.o. qdx5
[17] = Day 18, temozolomide 100 mg/kg p.o. qdx5
[18] = Day 21, temozolomide 100 mg/kg p.o. qdx5
[19] = Day 25, temozolomide 100 mg/kg p.o. qdx5
[20] = Day 28, temozolomide 100 mg/kg p.o. qdx5
[21] = temozolomide 100 mg/kg po qd x 5
[22] = Group 2: temozolomide 5 mg/kg po qd x 5
[23] = Group 6: temozolomide 100 mg/kg po qd x 5

Cn1nnc2c(C(N)=O)ncn2c1=O [Temozolomide, temozolomide]
Deaths NTR (non-treatment-related death) (U87MG tumor fragments; [5]): 0
Deaths TR (treatment-related death) (U87MG tumor fragments; [5]): 0
MTV(n) Day 29 (median tumor volume) (U87MG tumor fragments; [5]): 410 (10) mm^3
Regression CR (complete regression) (U87MG tumor fragments; [6]): 1
Regression PR (partial regression) (U87MG tumor fragments; [6]): 0
Deaths NTR (non-treatment-related death) (U87MG tumor fragments; [7]): 0
Deaths TR (treatment-related death) (U87MG tumor fragments; [7]): 0
Mean BW Nadir (lowest group mean body weight, as % change from Day 1) (U87MG tumor fragments; [7]): −2.5%
MTV(n) Day 29 (median tumor volume) (U87MG tumor fragments; [7]): 10 (8) mm^3
Regression CR (complete regression) (U87MG tumor fragments; [8]): 7
Regression PR (partial regression) (U87MG tumor fragments; [8]): 1
inhibition in vivo at 100 mg/kg (U87MG tumor fragments; Mus musculus, U-87 MG, po, 864 h, read-out: % TGI (percent tumor growth inhibition, compared to Group 1)): 98%
Mean BW Nadir, day of nadir (U87MG tumor fragments; mouse, in vivo, po): Day 8
MTV (n) Day 22 (mean tumor volume) ([1]; temozolomide 5 mg/kg p.o. qdx5): 825 mm^3
No. of CR ([1]; temozolomide 5 mg/kg p.o. qdx5): 0
No. of NTR ([1]; temozolomide 5 mg/kg p.o. qdx5): 0
No. of PR ([1]; temozolomide 5 mg/kg p.o. qdx5): 0
No. of TR ([1]; temozolomide 5 mg/kg p.o. qdx5): 0
MTV (n) Day 22 (mean tumor volume) ([1]; temozolomide 5 mg/kg p.o. qdx5, listed as temozolomide): 825.1 ± 95.03 N = 115 mm^3
No. of CR [1, 9]: 0
No. of NTR [1, 9]: 0
No. of PR [1, 9]: 1
No. of TR [1, 9]: 0
% TGI ([1]; temozolomide 100 mg/kg p.o. qdx5, Day 22, compared to temozolomide at 5 mg/kg): 88%
% TGD (vs Group 1) [2, 10]: 276%
Deaths NTR [2, 10]: 0
Deaths TR [2, 10]: 0
MTV (n) Day 49 [2, 10]: 0 (2) mm^3
Median TTE [2, 10]: 43.6 days
Regressions CR [2, 10]: 2
Regressions PR [2, 10]: 3
Regressions TFS [2, 10]: 2
T − C (TGD vs Group 1) [2, 10]: 32.0 days
% TGD (vs Group 1) [2, 11]: 93%
Deaths NTR [2, 11]: 0
Deaths TR [2, 11]: 0
Median TTE [2, 11]: 22.4 days
Regressions CR [2, 11]: 0
Regressions PR [2, 11]: 0
Regressions TFS [2, 11]: 0
T − C (TGD vs Group 1) [2, 11]: 10.8 days
TV, group Mean ([3]; Day 1, temozolomide 5 mg/kg po qd x 5): 111.2 mm^3
TV, group Mean [3, 12]: 110.7 mm^3
TV, individual mice [3, 12]: 88 mm^3 and 108 mm^3
TV, group Mean ([3]; Day 4, temozolomide 5 mg/kg po qd x 5): 222.2 mm^3
TV, group Mean [3, 13]: 182.8 mm^3
TV, individual mice [3, 13]: 144 mm^3 and 172 mm^3
TV, group Mean ([3]; Day 7, temozolomide 5 mg/kg po qd x 5): 439.1 mm^3
TV, group Mean [3, 14]: 185 mm^3
TV, individual mice [3, 14]: 144 mm^3 and 196 mm^3
TV, group Mean ([3]; Day 11, temozolomide 5 mg/kg po qd x 5): 599.1 mm^3
TV, group Mean [3, 15]: 215.2 mm^3
TV, individual mice [3, 15]: 100 mm^3 and 256 mm^3
TV, group Mean ([3]; Day 14, temozolomide 5 mg/kg po qd x 5): 720.4 mm^3
TV, group Mean [3, 16]: 221.5 mm^3
TV, individual mice [3, 16]: 144 mm^3
TV, group Mean ([3]; Day 18, temozolomide 5 mg/kg po qd x 5): 852.1 mm^3
TV, group Mean [3, 17]: 140.6 mm^3
TV, individual mice [3, 17]: 88 mm^3
TV, group Mean ([3]; Day 21, temozolomide 5 mg/kg po qd x 5): 1058.6 mm^3
TV, group Mean [3, 18]: 99.1 mm^3
TV, individual mice [3, 18]: 75 mm^3
TV, group Mean ([3]; Day 25, temozolomide 5 mg/kg po qd x 5): 1795.6 mm^3
TV, group Mean [3, 19]: 98.4 mm^3
TV, individual mice [3, 19]: 88 mm^3
TV, group Mean ([3]; Day 28, temozolomide 5 mg/kg po qd x 5): 1890.8 mm^3
TV, group Mean [3, 20]: 95 mm^3
TV, individual mice [3, 20]: 144 mm^3
Deaths NTR ([3]; temozolomide 5 mg/kg po qd x 5): 0
Deaths TR ([3]; temozolomide 5 mg/kg po qd x 5): 0
MTV (n) Day 25 (median tumor volume) ([3]; temozolomide 5 mg/kg po qd x 5): 1180 mm^3
Regressions CR ([3]; temozolomide 5 mg/kg po qd x 5): 0
Regressions PR ([3]; temozolomide 5 mg/kg po qd x 5): 0
Deaths NTR [3, 21]: 0
Deaths TR [3, 21]: 0
MTV (n) Day 25 (median tumor volume) [3, 21]: 88 mm^3
Regressions CR [3, 21]: 0
Regressions PR [3, 21]: 0
% TGI ([3]; temozolomide 100 mg/kg po qd x 5, Day 25, compared to temozolomide 5 mg/kg group): 94%
Median TTE [4]: 42.0 days
% TGD (vs Group 1) [4, 22]: 152%
Deaths NTR [4, 22]: 0
Deaths TR [4, 22]: 0
Median TTE [4, 22]: 28.7 days
Regressions CR [4, 22]: 0
Regressions PR [4, 22]: 0
Regressions TFS [4, 22]: 0
T − C (TGD vs Group 1) [4, 22]: 17.3 days
% TGD (vs Group 1) [4, 23]: 268%
Deaths NTR [4, 23]: 0
Deaths TR [4, 23]: 0
Median TTE [4, 23]: 42 days
Regressions CR [4, 23]: 1
Regressions PR [4, 23]: 0
Regressions TFS [4, 23]: 1
T − C (TGD vs Group 1) [4, 23]: 30.6 days
MTV (n) Day 46 (median tumor volume) ([4]; Group 6: temozolomide 100 mg/kg po qd x 5, excludes animals attaining tumor volume endpoint): 0 (1) mm3

Reference: patent US9757424B2, “Compositions and methods of treating gliomas” (BioMed Valley Discoveries, Inc., priority 2011, dated 2017)
